One experiment deals with human thrombin (Homo sapiens, UniProt P00734). The experiment in a line: Inhibition of thrombin hydrolysis of chromogenic substrate S2238 (Ki). In kind it is biochemical. Details: 0.2-0.5 nM human thrombin or human factor Xa; purchased Enzyme Research Laboratories, South Bend, Ind. The conditions noted are these: purified human thrombin, 0.10 M sodium phosphate buffer, pH 7.5, read-out: Ki values for inhibition of Serine Proteases: Trombin. How it is done: (§1) The effectiveness of compounds of the present invention as inhibitors of blood coagulation proteases was determined using purified human proteases and synthetic substrates following procedures similar to those described in Kettner et al. (1990).
(§2) For these assays, the rate of enzymatic (thrombin, Factor Xa, and Factor VIIa) hydrolysis of chromogenic substrates (S2238 (H-D-Phe-Pip-Arg-pNA), S2222, and S2288, respectively; Kabi Pharmacia, Franklin, Ohio) was measured both in the absence and presence of compounds of the present invention. […] A decrease in the rate of absorbance change at 405 nm in the presence of inhibitor is indicative of enzyme inhibition. The results of this assay are expressed as inhibitory constant, Ki.
(§3) Thrombin and Xa determinations were made in 0.10 M sodium phosphate buffer, pH 7.5, containing 0.20 M NaCl, and 0.5% PEG 8000. VIIa determinations were made in 0.05 M tris buffer, pH 7.6, containing 0.10 M NaCl, 4 mM CaCl2, and 0.1% bovine serum albumin.
(§4) Reactions were allowed to go for 30 minutes and the velocities (rate of absorbance change vs time) were measured in the time frame of 25-30 minutes. The following relationship was used to calculate Ki values. [formula] where: vo is the velocity of the control in the absence of inhibitor;
(§5) vs is the velocity in the presence of inhibitor;
(§6) I is the concentration of inhibitor;
(§7) Ki is the dissociation constant of the enzyme: inhibitor complex;
(§8) S is the concentration of substrate;
(§9) Km is the Michaelis constant.

In the next experiment the target is T1, human factor VIIa (Homo sapiens, UniProt P08709).
T1 construct: 50 nM human factor VIIa (BiosPacific, Emeryville, Calif.); purchased BiosPacific, Emeryville, Calif
T1 sequence (P08709 213-466 limits assumed): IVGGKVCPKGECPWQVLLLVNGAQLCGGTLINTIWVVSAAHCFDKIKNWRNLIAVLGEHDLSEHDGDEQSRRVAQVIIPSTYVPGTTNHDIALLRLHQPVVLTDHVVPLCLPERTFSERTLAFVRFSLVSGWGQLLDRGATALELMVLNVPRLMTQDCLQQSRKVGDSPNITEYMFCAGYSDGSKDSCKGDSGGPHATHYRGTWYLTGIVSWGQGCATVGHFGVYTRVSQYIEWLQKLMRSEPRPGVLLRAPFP
T1 sequence (P08709 61-212 partner limits assumed): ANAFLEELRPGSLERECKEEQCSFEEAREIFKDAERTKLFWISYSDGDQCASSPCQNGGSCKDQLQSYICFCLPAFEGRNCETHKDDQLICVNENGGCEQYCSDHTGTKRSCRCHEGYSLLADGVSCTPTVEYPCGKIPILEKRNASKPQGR
The experiment in a line: Inhibition of Factor VIIa hydrolysis of chromogenic substrate S2288 (Ki). The conditions noted are these: purified human factor VIIa, 0.05 M tris buffer, pH 7.6, read-out: Ki values for inhibition of Serine Proteases: Factor VIIa. It counts as biochemical. How it is done: as §1, §2, §3, §4, §5, §6, §7, §8, §9

pKi: −log10 of the molar value. Counter-ions that a name gives are not always drawn. Bounds are passed on as bounds.

As for “Hydrocinnamoyl-[N-(Cyclopropyl)-Gly]-boroLys(CH=NH)-C10H16 HCl [Example 77.1.1]”, on human thrombin, the pKi was above 6.30.
For the compound `CC(C)(CN(CC(=O)NC(CCCCN)B1OC2CC3CC(C3(C)C)C2(C)O1)C(=O)CCc1ccccc1)c1ccccc1` (stereo not shown) [Example 54.1.1, Hydrocinnamoyl-[N-(2,2-(Dimethyl)-Phenethyl)-Gly]-boroLys-C10H16 HCl], the pKi on human thrombin was above 6.30.
For the compound `CN(CC(=O)N(CCc1ccccc1)CC(=O)NC(CCCCN)B(O)O)S(C)(=O)=O` (stereo not shown) [Example 68.4.2], the pKi on human thrombin is above 6.30.
On the same count and under the same terms, with `CN(CC(=O)N(CCc1ccccc1)CC(=O)NC(CCCCN)B1OC2CC3CC(C3(C)C)C2(C)O1)S(C)(=O)=O` (stereo not shown) [Example 69.4.2, Methanesulfonyl-Sar-[N-(Phenethyl)-Gly]-boroLys-C10H16 HCl] the figure was above 6.30; with “Hydrocinnamoyl-[N-(Cyclopropyl)-Gly]-boroOrn(CH=NH)-C10H16 HCl [Example 58.4.2]”, above 4.30.
Turning to “Hydrocinnamoyl-[N-(Cyclopropyl)-Gly]-boroLys(CH=NH)--OH HCl [Example 76.1.1]”, the pKi on human thrombin was above 6.30.
Consider `COC(=O)CCC(NC(=O)OC(C)(C)C)C(=O)N(CCc1ccccc1)CC(=O)NC(CCCCN)B1OC2CC3CC(C3(C)C)C2(C)O1` (stereo not shown) [Example 69.2.3, Boc-Glu(OCH3)-[N-(Phenethyl)-Gly]-boroLys--C10H16 HCl], for which the pKi on human thrombin is above 6.30; at human factor VIIa, above 4.30.
For `CC1(C)C2CC3OB(C(CCCN)NC(=O)CN(C(=O)CCc4ccccc4)C4CC4)OC3(C)C1C2` (stereo not shown) [Example 60.4.2, Hydrocinnamoyl-[N-(Cyclopropyl)-Gly]-boroOrn-C10H16 HCl], the pKi at human thrombin is above 6.30.
In the case of `CC(C)(C)OC(=O)NC(CC(=O)O)C(=O)N(CCc1ccccc1)CC(=O)NC(CCCCN)B1OC2CC3CC(C3(C)C)C2(C)O1` (stereo not drawn) [Example 69.2.2, Boc-Asp-[N-(Phenethyl)-Gly]-boroLys-C10H16], the pKi on human thrombin and at human factor VIIa was above 6.30 each time.
For “2-(2-(Trifluoromethyl)-Benzyl)-Benzoyl-Sar-Lys--C(=O)--NHNH2 2 HCl [Example 71.4.2]”, on human thrombin, the pKi was above 4.30.
For `CC(C)(C)OC(=O)NC(CCC(=O)O)C(=O)N(CCc1ccccc1)CC(=O)NC(CCCCN)B1OC2CC3CC(C3(C)C)C2(C)O1` (stereo not drawn) [Example 69.2.1, Boc-Glu-[N-(Phenethyl)-Gly]-boroLys-C10H16], the pKi on human thrombin and at human factor VIIa was above 6.30 throughout.
Consider `Cc1cccc(CCN(CC(=O)NC(CCCCN)B2OC3CC4CC(C4(C)C)C3(C)O2)C(=O)CCc2ccccc2)c1` (stereo not shown) [Example 51.1.2, Hydrocinnamoyl-[N-(3-(Methyl)-Phenethyl)-Gly]-boroLys-C10H16 HCl], for which, at human thrombin, the pKi was above 6.30.
On to `CN(CC(=O)NC(CCCNC(=N)N)B(O)O)C(=O)c1ccccc1Sc1ccccc1C#N` (stereo not shown) [Example 75.3.1, (2-(2-Cyano)-Thiophenyl)-Benzoyl-Sar-boroArg--OH HCl], for which, at human factor VIIa, the pKi is above 6.30.
As for `CC(C)(CC(=O)O)CC(=O)N(CCc1ccccc1)CC(=O)NC(CCCCN)B(O)O` (stereo not shown) [Example 66.1.2, Glutaryl(3,3-Dimethyl)-[N-(Phenethyl)-Gly]-boroLys--OH], the pKi on human thrombin is above 6.30; at human factor VIIa, above 4.30.
“Hydrocinnamoyl-[N-(N(CH3)2)-Gly]-boroLys--C10H16 HCl [Example 50.1.3]”: at human thrombin, the pKi was above 6.30.
On to `COC(=O)CC(C)(C)CC(=O)N(CCc1ccccc1)CC(=O)NC(CCCCN)B(O)O` (stereo not shown) [Example 66.1.3, Methyl Glutaryl(3,3-Dimethyl)-[N-(Phenethyl)-Gly]-boroLys--OH HCl], for which the pKi was above 6.30 on human thrombin and above 4.30 at human factor VIIa.
With `CC(c1ccccc1)N(CC(=O)NC(CCCCN)B1OC2CC3CC(C3(C)C)C2(C)O1)C(=O)CNS(C)(=O)=O` (stereo not shown) [Example 67.3.2, Methanesylfonyl-Gly-[N-(N-(Methyl)-Benzyl)-Gly]-boroLys-C10H16 HCl], the pKi at human thrombin was above 6.30.

These data come from patent US6060462A, “Electrophilic peptide analogs as inhibitors of trypsin-like enzymes” (DuPont Pharmaceuticals Company, priority 1997, dated 2000).
